Measured values: US11701360B2, “Composition for inducing differentiation and protection of neural stem cells and method for inducing neuro-regeneration using the same composition” (GENUV Inc., priority 2017, dated 2023)

Columns and labels:
[1] = test system: mouse embryonic neural stem cells; assay: Morphology analysis (phase-contrast) of NSC differentiation in mouse embryonic neural stem cells; assay type: cell-based; settings: 4 days of culture
Protocol: Neural stem cells were isolated from the brain of a day 14.5 mouse embryo, treated with 10 ng/ml human basic fibroblast growth factor (bFGF) (Peprotech, Princeton, NG, cat #0.100-18B) and 20 ng/ml human epidermal growth factor (EGF) (Peprotech, cat #. AF-100-15) in a N2 culture medium, and cultured in suspension in a 25 cm2 flask (Nunc, Pittsburgh, Pa.) for 4 days. Formation of neurospheres was observed after 2 days.
In order to isolate single cells, 6-well plates were prepared the day before by treating the wells with 15 μg/ml poly-L-ornithine (Sigma, St. Louis, Mo., cat #.P2533) solution and incubating overnight at 37° C. for coating. The day of the single cell isolation, poly-L-ornithine solution was removed, the plates were washed with PBS three times, and 10 μg/ml fibronectin (Gibco, Waltham, Mass., cat #. 33016015) solution was added and incubated at 37° C. for 2 hours for coating.
Various concentrations of the compound of [Formula 1]
FIG. 10b is the analysis of Tuj1 mRNA expression in the cells of each group.

[2] = test system: mouse adult neural stem cells; settings: 10 nM and 100 nM; regardless of 10 μM amyloid-beta; 4 days
Protocol: NSC were isolated from the subventricular zone of week 8 mouse brain, treated with 20 ng/ml human basic fibroblast growth factor (bFGF) and 20 ng/ml human epidermal growth factor (EGF) in an IPM medium, and cultured as a suspension in 24-well plates for 7 days.
Two days before the isolation of single cells, 6-well plates were prepared by treating the wells with 10 μg/ml poly-L-ornithine solution and incubating overnight at room temperature for coating. The next day, poly-L-ornithine solution was removed and the plates were washed 3 times with sterilized triple distilled water. […] The culture solution used is N2 culture medium (supplemented with 20 ng/ml bFGF and 20 ng/ml EGF). Right before seeding, the coating solution was suctioned out, and the single cells were uniformly seeded into the culture plate before the plate dried up. Cells were allowed to attach to the plates for about one minute, and after checking that cells were sufficiently attached, an additional 1.5 ml of culture medium (N2 culture medium with 20 ng/ml bFGF and 20 ng/ml EGF) was added to the cells and cultured in a 37° C. incubator for 24 hours.
Wells not treated with amyloid-beta were left to use as negative controls.
Gibco's (Waltham, Mass.) human Aβ (1-42) was purchased to use for the amyloid-beta (Aβ), and the following process was followed to create oligomers. […] Then, it was dried for 10 minutes in a speed Vac, after which DMSO (Sigma, cat #.D2650) was added to bring the concentration to 5 mM and then lightly vortexed at room temperature for 10 minutes. […] The solution was incubated at 4° C. for 24 hours and then added into the cultured cells.
The NCSs were cultured with the daily addition of EGF, bFGF, amyloid-beta, and test materials for 4 days.

[3] = test system: mouse embryonic neural stem cells; assay: Immunocytochemistry analysis (Tuj1/DAPI staining); assay type: cell-based; settings: 10 nM; 4 days
Protocol: Tuj1 (Neuron specific class III beta-tubulin) is a neuron specific marker protein, which was conjugated to rhodamine to show fluorescent red, while DAPI binds to the cell DNA and stains the cell nuclei fluorescent blue. […] The medium was removed and the cells were washed with PBS. After fixing with 10% formaldehyde (Sigma cat #. HT501128) at room temperature for 10 minutes, they were washed again with PBS. They were permeabilized with 0.2% Triton X-100 (Sigma, cat #. 93443) at room temperature for 15 minutes, washed with PBS, and incubated with 10% BSA (Sigma, cat #. A2153)+1% normal goat serum (Vector lab, Burlingame, Calif., cat #. S1000) at room temperature for 1 hour. […] The solution was removed, washed with PBS, and incubated at room temperature for 1 hour with the secondary antibody (rhodamine-conjugated antibody) diluted in 1% BSA+1% normal goat serum at a ratio of 1:200. Then, the cells were washed with PBS, incubated with 5 μg/ml DAPI (Sigma, cat #. D9542) for 5 minutes, washed with PBS again, and mounted on a slide glass for analysis with a fluorescent microscope.

[4] = test system: mouse embryonic neural stem cells; assay: qRT-PCR of neuronal marker mRNA expression in mouse embryonic NSC; assay type: cell-based
Protocol: Isopropanol (Ducsan, GyunggiDo, Korea, cat #. 67-63-0) was added and mixed for RNA isolation, then centrifuged again to remove the supernatant and obtain the pellet. The RNA pellet was resuspended in 75% ethanol (Ducsan, cat #. 64-17-15), centrifuged, and the supernatant removed. The pellet was then resuspended in sterilized triple distilled water to obtain the mRNA, incubated for 10 minutes at 55° C., and stored at −80° C.
Sterilized triple distilled water, 1 pM oligo dT, and 1 mM dNTP were added to the RNA and incubated for 5 minutes at 65° C. This was followed by the addition of 5× First-strand buffer, 10 mM DTT, and M-MLV reverse transcriptase and incubated at 42° C. for 1 hour, then at 72° C. for 15 minutes, and at 4° C. for 30 minutes. The synthesized cDNA was stored at −20° C.
The term relative mRNA expression level signifies that in order to normalize each group's total RNA level, the mRNA expression level of each differentiation marker is divided by the expression level of GAPDH whose expression level is fairly constant across cells, and then the values of each test material are compared with those of the controls (undifferentiated NSC) in each group.

[5] = test system: mouse adult neural stem cells; assay: qRT-PCR of neuronal marker mRNA expression in mouse adult NSC; assay type: cell-based; settings: 10 nM; 2 days
[6] = test system: 5XFAD mouse; assay: NeuN immunohistochemical staining of brain slices, 5XFAD AD model mouse; assay type: in vivo; settings: orally daily for 28 days; vs vehicle
Protocol: The mouse was then anesthetized and perfused with PBS for the extraction of the brain. […] The other half of the hemispheres plus another 3 extracted mice brains per group were placed in 10% formalin solution at 4° C. for 1 day, which was then followed with the proceeding steps to allow good penetration of paraffin into the brain tissue. The brain tissues were immersed sequentially in 70%, 80%, 95%, 100% alcohol for 1 hour each for dehydration, then immersed in xylene 3 times for 1 hour each for clearing, and embedded in paraffin by placing in liquid paraffin 2 times for 1 hour each. After these procedures, the paraffin-embedded brain tissue (paraffin block) was cut into 5 μm sections, mounted on slides, and stored at room temperature. […]
FIG. 13b indicates the number of NeuN stained cells counted and represented as the percentage of the number of cells per unit area in the motor cortex layer 5 region. Area samples were taken from 6 areas per mouse, 3 mice per group, so the number of cells counted was from a total of 18 areas.
FIG. 14b indicates the number of NeuN stained cells counted and represented as the percentage of the number of cells per unit area in the dotted area of the hippocampal subiculum shown in FIG. 14a. Area samples were taken from 3 areas per mouse, 3 mice per group, so the number of cells counted was from a total of 9 areas.

[7] = test system: 5XFAD mouse; assay: Tuj1 staining in the somatosensory cortex, 5XFAD mouse; assay type: in vivo
Protocol: Anti-Tuj1 antibodies were added to the brain tissue slides of 5XFAD mouse in Example 8 and incubated at 4° C. for 1 day, after which the tissue slides were fluorescently stained by incubating with Fluorescein isothiocyanate (FITC)-secondary antibodies (Invitrogen, cat #. A21121) at room temperature for 1 hour. In FIG. 15, the areas marked with arrows (→) indicate cells stained with Tuj1 and the areas marked with arrowheads (▾) indicate plaques formed by amyloid-beta aggregation. Plaques were present in both vehicle-treated and trametinib-treated groups.

[8] = test system: 5XFAD mouse; assay: Nissl, NeuN and DCX staining in the hippocampal dentate gyrus, 5XFAD mouse; assay type: in vivo; settings: orally daily for 28 days
Protocol: After placing in 0.1% cresyl violet (Sigma, cat #. C5042) solution at room temperature for 15 minutes, they were dehydrated by sequentially immersing in 80%, 90%, 100% alcohol, and xylene. Coverslips were put on the slides and the neurons examined.
NeuN staining was performed by the same method as described in Example 8 as was DCX staining, but using anti-DCX antibodies (Santa Cruz, cat #. sc271390) instead of anti-NeuN antibodies.

[9] = test system: 5XFAD mouse; assay: TUNEL assay of apoptosis in brain slices, 5XFAD mouse; assay type: in vivo; settings: orally daily for 28 days; vs vehicle
Protocol: The TUNEL assay stains the 3′-hydroxyl terminus of fragmented DNA, allowing the detection of cells undergoing apoptosis in the tissue.
Specifically, the brain tissue slides were permeabilized with 20 μg/ml proteinase K solution for 10 minutes, incubated with equilibration buffer for 10 minutes, and then incubated with TdT solution at 37° C. for 1 hour.

[10] = test system: 5XFAD mouse; assay: Tuj1 and calbindin staining of cerebellar Purkinje cells, 5XFAD mouse; assay type: in vivo; settings: particularly 0.1 mg/kg; vs vehicle
Excerpt: Two slides for Tuj1 staining and three for calbindin staining are shown for each treatment group.

[11] = test system: pERK; assay: Western blotting of pERK in brain hemispheres, 5XFAD mouse; assay type: in vivo; settings: 0.1 mg/kg and 1.0 mg/kg PO; vs vehicle
[12] = test system: Aβ(1-40) and Aβ(1-42); assay: ELISA of Aβ(1-40) and Aβ(1-42) in brain hemispheres, 5XFAD mouse; assay type: in vivo; settings: orally daily for 28 days; vs vehicle
[13] = test system: MEK 1, MEK2; settings: cited from earlier work
[14] = test system: 5XFAD mouse; assay: BrdU staining in the hippocampal dentate gyrus, 5XFAD mouse; settings: orally daily for 28 days; vs vehicle
Protocol: For the BrdU staining to be performed later, 50 mg/kg of BrdU (Sigma, cat #. B5002) was added to the daily dose for the last 5 days. The mouse was then anesthetized and perfused with PBS for the extraction of the brain. […] The other half of the hemispheres plus another 3 extracted mice brains per group were placed in 10% formalin solution at 4° C. for 1 day, which was then followed with the proceeding steps to allow good penetration of paraffin into the brain tissue. The brain tissues were immersed sequentially in 70%, 80%, 95%, 100% alcohol for 1 hour each for dehydration, then immersed in xylene 3 times for 1 hour each for clearing, and embedded in paraffin by placing in liquid paraffin 2 times for 1 hour each. After these procedures, the paraffin-embedded brain tissue (paraffin block) was cut into 5 μm sections, mounted on slides, and stored at room temperature. Prior to immunohistochemical staining, the tissues on the slides were rehydrated by sequentially immersing in xylene, 100%, 90%, 80%, 70%, 50% alcohol, and then water for 5 minutes each. […] The next day, the slides were incubated with anti-rabbit antibodies (Vector lab, cat #. PI-1000) at room temperature for 1 hour and then stained with DAB staining for the analysis of the neuronal distribution in the brain.

[15] = 1 nM, 10 nM, 25 nM, 100 nM, 2 days

With `CC(=O)Nc1cccc(-n2c(=O)n(C3CC3)c(=O)c3c(Nc4ccc(I)cc4F)n(C)c(=O)c(C)c32)c1` [trametinib, N-(3-{3-cyclopropyl-5-[(2-fluoro-4-iodophenyl)amino]-6,8-dimethyl-2,4,7-trioxo-3,4,6,7-tetrahydropyrido[4,3-d]pyrimidin-1(2H)-yl}phenyl)acetamide] the “differentiation of NSC into neurons (morphology)” value ([1]; 10 nM, 25 nM and 100 nM) was “readily induced the differentiation of NSC into neurons”, the “concentration at which differentiation of NSC into neurons is seen” value [1] was no less than 10 nM and the “differentiation of NSC into neurons (morphology)” value [2] was “readily induced the differentiation of NSC into neurons”. The “neuron differentiation (Tuj1 staining)” value [3] was “increasingly active differentiation activity”, the “mRNA expression of GABAergic neuron marker Gad1” value [4, 15] was “increased with the increase in concentration” and the “mRNA expression of cholinergic neuron marker ChAT” value [4, 15] was “increased with the increase in concentration”. For the same molecule, the “mRNA expression of dopaminergic neuron marker TH” value [4, 15] was “increased with the increase in concentration”, the “mRNA expression of motor neuron marker Isl1” value [4, 15] was “increased with the increase in concentration” and the “concentration at which differentiation-inducing effect is exerted (Tuj1, TH mRNA)” value ([4]; 4 days) was 1 nM. For the same molecule, the “mRNA expression of cholinergic neuron marker ChAT” value [5] was “increased”, the “mRNA expression of dopaminergic neuron marker TH” value [5] was “increased” and the “mRNA expression of neuronal marker Tuj1” value [5] was “increased”. For the same molecule, the “number of NeuN stained neurons, hippocampal subiculum” value [6] was “significant increase in the number of neurons”, the “number of NeuN stained neurons, motor cortex layer 5” value [6] was “significant increase in the number of neurons” and the “lowest dose showing neural stem cell differentiation-inducing activity” value [7] was 0.1 mg/kg/day. The “immature neurons stained by DCX in dentate gyrus” value [8] was “seen to be present”, the “number of cells with Type 2 or Type 3 morphology in dentate gyrus (Nissl and NeuN staining)” value [8] was “increased considerably” and the “number of TUNEL stained cells in somatosensory cortex and subiculum” value [9] was “significantly lower”. For the same molecule, the “axon structure of cerebellar Purkinje cells” value [10] was “increased axon arborization or at least with preserved axon structure”, the “protein level of pERK in the brain” value [11] was “considerably lower” and the “amount of Aβ(1-42)/Aβ(1-40) in brain” value [12] was “decreased”. The IC50 [13] was 0.92 to 3.4 nM and the “number of cells stained with BrdU in the dentate gyrus” value [14] was “an increase in the number of cells stained with BrdU”.
